Assay results as given in patent publication US8748598B2, “Analogs of 3-O-acetyl-11-keto-beta-boswellic acid” (Laila Nutraceuticals, priority 2004, dated 2014).
Values after ≈ are worked out from the molar mass of the structure shown.

Key:
[1] = system: MDA-MB-231; assay: MTT cell proliferation assay, MDA-MB-231; format: cell-based, human; conditions: Homo sapiens, MDA-MB-231; Table 4
Outline: (§1)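 Cells exposed three days to compounds at concentrations up to 10 μg/ml (≤0.5% DMSO), then 0.5 mg/ml MTT for 4 h at 37 °C. Solubilized formazan read at 540 nm; IC50 calculated from quadruplicate wells.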

[2] = system: MCF-7; assay: MTT cell proliferation assay, MCF-7; format: cell-based, human; conditions: Homo sapiens, MCF7; Table 4
Outline: as §1

[3] = system: A549; assay: MTT cell proliferation assay, A549; format: cell-based, human; conditions: Homo sapiens, A549; read-out: Inhibition of cell proliferation (IC50)
Method: (§2) MTT [3-(4,5-dimethylthiazol-2-yl)-2,5-diphenyltetrazolium bromide] incorporation based cell proliferation assay was performed as described previously (Reference). The cytotoxic efficacy of some analogs was evaluated in different cell lines by MTT cell proliferation assay kit (Roche Applied Sciences, Germany). The assay was carried out according to the instruction provided by the vendor. Briefly, in brief, equal numbers of cells was plated in 96-well flat-bottomed plates in 100 μl of medium and were exposed to different analogs selected from 1 to 63 at various concentrations up to 10 μg/ml for a period of three days. Vehicle control culture wells received only a maximum of 0.5% DMSO. Thereafter, 0.5 mg/ml of MTT reagent was added to each well and the microplate was incubated further for 4 h at 37° C. in presence of 5% CO2. Finally, the cells were solubilized by adding solubilizing solution and allowed to incubate at 37° C. overnight. After complete solubilization of the formazan crystals the absorbance was read at 540 nm in a microplate reader (BioRad, USA). The results (mean OD±SD) obtained from quadruplicate wells were used in calculation to determine the inhibition of cell proliferation (50% of inhibitory concentration, IC50) of the test compounds.

[4] = system: A375; assay: MTT cell proliferation assay, A375; format: cell-based, human; conditions: Homo sapiens, A-375; A375; read-out: Inhibition of cell proliferation (IC50)
Method: as §2

[5] = system: B16; assay: MTT cell proliferation assay, B16; format: cell-based, mouse; conditions: Mus musculus, B16; read-out: Inhibition of cell proliferation (IC50)
Method: as §2

[6] = system: A2058; assay: In vitro antitumor activity, A2058; format: cell-based; conditions: Homo sapiens, read-out: Inhibition of cell proliferation (IC50)
Method: as §2, with “USA).” for “USA). The results (mean OD±SD) obtained from quadruplicate wells were used in calculation to determine the inhibition of cell proliferation (50% of inhibitory concentration, IC50) of the test compounds.”

[7] = system: DU145; assay: In vitro antitumor activity, DU145; format: cell-based; conditions: Homo sapiens, DU-145, read-out: Inhibition of cell proliferation (IC50)
Method: as §2, with “USA).” for “USA). The results (mean OD±SD) obtained from quadruplicate wells were used in calculation to determine the inhibition of cell proliferation (50% of inhibitory concentration, IC50) of the test compounds.”

[8] = system: SKBR3; assay: In vitro antitumor activity, SKBR3; format: cell-based; conditions: Homo sapiens, SK-BR-3, read-out: Inhibition of cell proliferation (IC50)
Method: as §2, with “USA).” for “USA). The results (mean OD±SD) obtained from quadruplicate wells were used in calculation to determine the inhibition of cell proliferation (50% of inhibitory concentration, IC50) of the test compounds.”

[9] = system: HT-29; assay: In vitro antitumor activity, HT-29; format: cell-based; conditions: Homo sapiens, read-out: Inhibition of cell proliferation (IC50)
Method: as §2, with “USA).” for “USA). The results (mean OD±SD) obtained from quadruplicate wells were used in calculation to determine the inhibition of cell proliferation (50% of inhibitory concentration, IC50) of the test compounds.”

[10] = system: Human umbilical vein endothelial cells (HUVEC); assay: In vitro capillary-like tube formation assay; format: cell-based; conditions: HUVEC on Cultrex, 1, 2.5 and 5 μg/ml, 16 h
Method: In vitro capillary formation assay was performed with Human umbilical vein endothelial cells (HUVEC), cultured on 10 mg/ml basement membrane extract (BME—Cultrex®, R&D Systems, USA) bed. The protocol of in vitro endothelial tube formation assay was the same as described earlier with some modifications (Reference). Briefly, four hundred microliters of Cultrex was coated at 4° C. in each well of 24-well culture plate and allowed to gel at 37° C. for 1 h. HUVECs were plated at a density of 7.5×10^4 cells per well with 400 μl of DMEM supplemented with 10% fetal bovine serum and 4.5 g/l D-glucose. The cells were then treated with either 0.5% DMSO or different concentrations of LI-51255 for 16 hours. Pictures were taken under a Nikon Eclipse TS 100 microscope equipped with a Nikon Coolpix camera (FIG. 1B).

[11] = system: AKT pathway; assay: AKT pathway western immunoblot in MDA-MB-231 cells; format: cell-based, human; conditions: MDA-MB-231, 10 μg/ml, 0-240 min
Method: Equal number of MDA-MB-231 human breast tumor cells (ER-) was plated in 25 cm^2 cell culture flasks. The cells treated with either 0.5% DMSO as vehicle or 10 μg/ml of LI-51255 for 0, 5, 10, 20, 30, 60, 120 and 240 min. The cells were lysed in cell lysis buffer.

[12] = system: MDA-MB-231; assay: MDA-MB-231 clone (colony) formation in vitro; format: cell-based, human; conditions: 1.0, 1.5, 2.0, 2.5 μg/ml, 8 days
Method: Inhibitory efficacy in clone formation of LI-51255 was tested by following the procedure described earlier with some modifications (Wu et al. 2005). Briefly, MDA-MB-231 cells were harvested and seeded into 6-well plates (100 cells/ml). The cells were allowed to grow for 4 days and thereafter, the cells were incubated with DMEM containing either 0.5% DMSO or 25 μg/ml AKBA or different concentrations (1.0, 1.5, 2.0, 2.5 μg/ml) of LI-51255 for further 8 days. Fresh medium containing test agents was replaced at every 24 h. Finally, the wells were washed three times with PBS and fixed in methanol for 15 min. The cells were stained with Giemsa stain and observed under microscope. The image of the stained wells were captured digitally (Kodak Image Station 4000MM, Carestream Health Inc., New Haven, Conn.) and number of colonies were counted and analyzed by using NIH Image J software.

[13] = system: B16 murine melanoma cells; assay: Cell cycle analysis by flow cytometry; format: cell-based; conditions: 24 h
Method: For flow cytometry, cells were harvested after the treatment period, washed with phosphate buffered saline (PBS), and adjusted the cell count at 2×10^6 cells per milliliter. The cells were fixed in 70% ethanol for 30 min at 4° C. Cells were then washed two times with PBS and stained with 0.5 μg/ml propidium iodide at 37° C. for 30 min and analyzed by flow cytometry. Data were acquired on a FACS Scan flow cytometer (Becton Dickinson) and analyzed by using the Cellquest software.

## CC(=O)O[C@@H]1CC[C@@]2(C)C(CC[C@]3(C)C2C(=O)C=C2C4[C@@H](C)[C@H](C)CC[C@]4(C)CC[C@]23C)[C@@]1(C)C(=O)NCCN (stereo partly shown) [Analog 21]
[1]
  IC50: 3.45 µg/mL (≈ 6.22 µM)
[2]
  IC50: 13 µg/mL (≈ 23.4 µM)
[3]
  IC50: 6.83 µg/mL (≈ 12.3 µM)
[4]
  IC50: 3.53 µg/mL (≈ 6.36 µM)
[5]
  IC50: 4.35 µg/mL (≈ 7.84 µM)
[6]
  IC50: 3.59 µg/mL (≈ 6.47 µM)
[7]
  IC50: 4.24 µg/mL (≈ 7.64 µM)
[8]
  IC50: 5.3 µg/mL (≈ 9.55 µM)
[9]
  IC50: 8.87 µg/mL (≈ 16 µM)
[10]
  capillary-like tube formation: dose dependent inhibition
[11]
  phosphorylated AKT (ser 473) protein expression: down regulating AKT phosphorylation
[12]
  MDA-MB-231 colony formation: potent inhibition of clone formation
[13]
  cell cycle progression: interrupts cell cycle progression at sub G1 phase
